Experimental data from article PMC6859854 (2019).

Tested on: 75 nadA (RNA, riboswitch) GGGUUUGGUUGCAACAUCCCCGUGGGUUGGGUGAUGGCUCCAAUCAGAGCCGGAACAGCGAAUCCACUGCAACCGUGA
Test: in-line probing
Conditions: 20 mM Mg2+, 100 mM K+; 50 mM Tris-HCl pH 8.3, 23 °C, 42–72 h; apparent

- KD: ~ 90 μM
SMILES: NC(=O)c1ccc[n+]([C@@H]2O[C@H](COP(=O)(O)OP(=O)(O)OC[C@H]3O[C@@H](n4cnc5c(N)ncnc54)[C@H](O)[C@@H]3O)[C@@H](O)[C@H]2O)c1
